From patent US20150335579A1, “MULTILAYER TABLET CONTAINING TELMISARTAN AND HYDROCHLOROTHIAZIDE” (Sawai Pharmaceutical Co., Ltd., priority 2013, published 2015)

Assay: Moisture absorbency of telmisartan and telmisartan meglumine salt
Format: physicochemical
Description: As mentioned above, it is known that the hydrolysis of hydrochlorothiazide is promoted by temperature and humidity.

moisture absorbency (result in words)	moisture absorbency relative to telmisartan itself	Structure (SMILES)
relatively low	–	CCCc1nc2c(C)cc(-c3nc4ccccc4n3C)cc2n1Cc1ccc(-c2ccccc2C(=O)O)cc1 [telmisartan]
–	about 10 times	CCCc1nc2c(C)cc(-c3nc4ccccc4n3C)cc2n1Cc1ccc(-c2ccccc2C(=O)O)cc1.CNCC(O)C(O)C(O)C(O)CO [telmisartan meglumine salt]
